Reference: patent US11318077B2, “Retinaldehyde containing compositions and methods of use” (RODAN & FIELDS, LLC, priority 2017, dated 2022)
Several values for one entry are separate records, joined by “and”; a condition that tells them apart may be missing. Identical values can stand only once.

What was measured:
[1] = system: Retinoic Acid Response Element (RARE) transcription factor pathway; assay: Cignal RARE Reporter Assay (firefly luciferase) in HEK293 cells; format: cell-based; conditions: for RARE-mediated firefly luciferase expression, % control / RARE-mediated firefly luciferase expression, Fold increase: 24 h, vs water; for Activity in RARE reporter assay: tested concentrations
From the text: Objective: Retinoic Acid Receptor (RAR) controls gene transcription by binding to Retinoid Acid Response Elements (RAREs) in DNA. This process is modulated by all trans retinoic acid (ATRA)—a compound with well-established anti-aging skin benefits. […] Cignal RARE Reporter Assay® is designed to screen for such compounds using cell cultures. The objective of this project was to test 6 compounds (retinoic acid (ATRA), retinol, vitamin A palmitate, retinal, 10% w/w Near-1 in dimethylisosorbide, and 10% w/w retinoid ester in dimethylisosorbide) for the ability to activate RARE in this Cignal RARE Reporter Assay model.
(§1) Materials & Methods: The experiments were performed using HEK293 cells (Sigma, St. Louis, Mo.; cat. #85120602) seeded at 50,000 per well in a 96 well black-wall tissue culture plate. Cells were transfected by mixing Cignal Reporter Assay firefly/renilla luciferase constructs (cat. #CCS-016L; Qiagen) with Attractene Transfection Reagent (Qiagen) in Opti-MEM supplemented with 1% MEM Non-essential amino acid solution without L-glutamine. After medium change test materials were added and their effect on RARE induction was quantified 24 h later with the Dual-Luciferase Reporter Assay System (cat. #E1960; Promega).

[2] = system: Retinoid X receptor (RXR) transcription factor pathway; assay: Cignal RXR Reporter Assay (firefly luciferase) in HEK293 cells; format: cell-based; conditions: for RXR activation (% control): 24 h, vs water; for Activity in RXR reporter assay: tested concentrations
From the text: Objective: Retinoid X receptors (RXRs) are one class of nuclear receptors through which retinoids mediate their biological effects. These receptors function as transcription factors by binding as heterodimers to specific sequences in the promoters of target genes. The protein encoded by this gene is a member of the steroid and thyroid hormone receptor superfamily of transcriptional regulators. One of its ligands is all trans retinoic acid (ATRA)—a compound with well-established anti-aging skin benefits. […] Cignal RXR Reporter Assay® is designed to screen for such compounds (retinoic acid (ATRA), retinal, 10% w/w Near-1 in dimethylisosorbide, and 10% w/w retinoid ester in dimethylisosorbide) using cell cultures. The objective of this project was to test four compounds for the ability to activate RXR in this Cignal RXR Reporter Assay model.
as §1, with “The” for “Materials & Methods: The”, “Cignal RXR” for “Cignal”, “#CCS9044L;” for “#CCS-016L;”, “Lglutamine.” for “L-glutamine.”, “RXR” for “RARE”
RXR is a mixture of an inducible retinoid X receptor—responsive firefly luciferase construct and a constitutively expressing Renilla construct, which acts as an internal control for normalizing transfection efficiencies and monitoring cell viability. Signal quantification was obtained with ThermoFisher Scientific Luminoskan Ascent Microplate Luminometer.

| Structure (SMILES) | RARE-mediated firefly luciferase expression, % control ([1]; 0.2 μM) | RARE-mediated firefly luciferase expression, Fold increase ([1]; 0.2 μM) | RARE-mediated firefly luciferase expression, % control ([1]; 1 μM) | RARE-mediated firefly luciferase expression, Fold increase ([1]; 1 μM) | RARE-mediated firefly luciferase expression, % control ([1]; 5 μM) | RARE-mediated firefly luciferase expression, Fold increase ([1]; 5 μM) | RXR activation (% control) ([2]; 0.2 μM) | RXR activation (% control) ([2]; 1 μM) | RXR activation (% control) ([2]; 5 μM) | Activity in RXR reporter assay [2] | RARE-mediated firefly luciferase expression, % control ([1]; 10 μM) | RARE-mediated firefly luciferase expression, Fold increase ([1]; 10 μM) | times less effective than retinoic acid in modulating the RARE pathway ([1]; at 1 uM) | effectiveness vs retinoic acid in modulating the RARE pathway ([1]; at 5 uM) | Activity in RARE reporter assay [1] | RXR activation (% control) ([2]; 10 μM) | times less effective in modulating RXR pathway in comparison to retinoic acid ([2]; at 5 uM) |
| --- | --- | --- | --- | --- | --- | --- | --- | --- | --- | --- | --- | --- | --- | --- | --- | --- | --- |
| CC1=C(/C=C/C(C)=C/C=C/C(C)=C/C(=O)O)C(C)(C)CCC1 [ATRA, all trans retinoic acid] | 775 % control and 1099 % control | 7.8 and 11.0 | 1054 % control and 1284 % control | 10.5 and 12.8 | 973 % control | 9.7 | 201 % control | 340 % control | 437 % control | best performers | – | – | – | – | – | – | – |
| CC1=C(/C=C/C(C)=C/C=C/C(C)=C/C=O)C(C)(C)CCC1 [Retinal, retinaldehyde] | – | – | 613 % control | 6.1 | 1005 % control | 10.0 | – | 131 % control | 181 % control | best performers | 946 % control | 9.5 | 1.7 times | equivalent to retinoic acid | best performer | 279 % control | 2.4 times |
| CC1=C(/C=C/C(C)=C/C=C/C(C)=C/CO)C(C)(C)CCC1 [Retinol, retinol] | – | – | 138 % control and 150 % control | 1.4 and 1.5 | 268 % control and 253 % control | 2.7 and 2.5 | – | – | – | – | 278 % control and 294 % control | 2.8 and 2.9 | – | – | – | – | – |
| CCCCCCCCCCCCCCCC(=O)OC/C=C(C)/C=C/C=C(C)/C=C/C1=C(C)CCCC1(C)C [Vit A Palmitate, vitamin A palmitate] | – | – | 75 % control and 76 % control | 0.7 and 0.8 | 77 % control and 73 % control | 0.8 and 0.7 | – | – | – | – | 86 % control and 67 % control | 0.9 and 0.7 | – | – | All test materials except Vit-A-Pal were active | – | – |
